According to PMC7818921, “Synthesis and biological evaluation of heterocyclic 1,2,4-triazole scaffolds as promising pharmacological agents” (BMC Chemistry, 2021):
≈ marks a conversion by molar mass, not a printed value.

Key:
[1] = DPPH free radical scavenging activity; settings: for IC50: DPPH antioxidant; for % inhibition: DPPH
Protocol: In the DPPH free radical scavenging activity, compounds (T1–T20) were evaluated for their free radical scavenging activity with ascorbic acid as standard compound. The scavenging effect increased with the increasing concentrations of sample compounds. DPPH is relatively stable nitrogen centered free radical that easily accepts an electron or hydrogen radical to become a stable diamagnetic molecule. DPPH radicals react with suitable reducing agents as a result of which the electrons become paired off forming the corresponding hydrazine. The solution therefore loses colour stoichometrically depending on the number of electrons taken up. […] The sample solutions were incubated for 30 min at room temperature in dark place and after then absorbance was recorded against the blank solution at 517 nm. The relative percent of DPPH scavenging activity was calculated according to the following equation: I%=Acontrol-Asample/Acontrol×100,
where Acontrol is the absorbance of the control, Asample is the absorbance of the test compound.

[2] = tested on: HCT116 (human colon cancer cells); test: Anticancer evaluation, SRB assay; assay type: cell-based; settings: Homo sapiens, HCT-116
Protocol: HCT116 (human colon cancer cells) were seeded at 2500 cells/well (96 well plate), allowed to attach overnight, exposed to the respective compounds for 72 h and subjected to SRB assay (570 nm). Data represent mean IC50 of at least triplicates. The compounds were all dissolved in DMSO as stock of 100 mg/ml. […] The highest concentration of each compound tested (100 μg/ml) contained only 0.1% DMSO.

[3] = tested on: Pseudomonas aeruginosa; test: In vitro antimicrobial screening, tube dilution method; assay type: cell-based; settings: Pseudomonas aeruginosa; P. aeruginosa, Gram −ve; nutrient broth, 37 ± 1 °C, 24 h; read-out: Minimum inhibitory concentration
Protocol: (§1) The in vitro antimicrobial screening of the synthesized 1,2,4-triazole derivatives (T1–T20) in μM was determined against Gram-positive Bacillus subtilis, […], Gram-negative Escherichia coli bacterium and fungal strains Candida albicans and Aspergillus niger by tube dilution method using ciprofloxacin, amoxycillin (antibacterial) and fluconazole (antifungal) as reference drugs. DMSO was used to dissolve the reference and sample derivatives (T1–T20). Dilutions were prepared in nutrient broth (I.P.) for bacterial (incubated at 37 ± 1 °C for 24 h) and Sabouraud dextrose broth (I.P.) for fungal species (37 ± 1 °C for 48 h for C. albicans) and (25 ± 1 °C for 7 days for A. niger) (Table 3, Figs. 4 and 5).

[4] = tested on: Escherichia coli; test: as above; assay type: cell-based; settings: Escherichia coli; E. coli, Gram −ve; nutrient broth, 37 ± 1 °C, 24 h; read-out: Minimum inhibitory concentration
Protocol: as §1

[5] = tested on: Bacillus subtilis; test: as above; assay type: cell-based; settings: Bacillus subtilis; B. substilis, Gram +ve; nutrient broth, 37 ± 1 °C, 24 h; read-out: Minimum inhibitory concentration
Protocol: as §1

[6] = molecular target: Jack Bean Urease (Canavalia ensiformis, UniProt P07374); test: biochemical
Sequence of Jack Bean Urease (P07374 whole entry, looked up): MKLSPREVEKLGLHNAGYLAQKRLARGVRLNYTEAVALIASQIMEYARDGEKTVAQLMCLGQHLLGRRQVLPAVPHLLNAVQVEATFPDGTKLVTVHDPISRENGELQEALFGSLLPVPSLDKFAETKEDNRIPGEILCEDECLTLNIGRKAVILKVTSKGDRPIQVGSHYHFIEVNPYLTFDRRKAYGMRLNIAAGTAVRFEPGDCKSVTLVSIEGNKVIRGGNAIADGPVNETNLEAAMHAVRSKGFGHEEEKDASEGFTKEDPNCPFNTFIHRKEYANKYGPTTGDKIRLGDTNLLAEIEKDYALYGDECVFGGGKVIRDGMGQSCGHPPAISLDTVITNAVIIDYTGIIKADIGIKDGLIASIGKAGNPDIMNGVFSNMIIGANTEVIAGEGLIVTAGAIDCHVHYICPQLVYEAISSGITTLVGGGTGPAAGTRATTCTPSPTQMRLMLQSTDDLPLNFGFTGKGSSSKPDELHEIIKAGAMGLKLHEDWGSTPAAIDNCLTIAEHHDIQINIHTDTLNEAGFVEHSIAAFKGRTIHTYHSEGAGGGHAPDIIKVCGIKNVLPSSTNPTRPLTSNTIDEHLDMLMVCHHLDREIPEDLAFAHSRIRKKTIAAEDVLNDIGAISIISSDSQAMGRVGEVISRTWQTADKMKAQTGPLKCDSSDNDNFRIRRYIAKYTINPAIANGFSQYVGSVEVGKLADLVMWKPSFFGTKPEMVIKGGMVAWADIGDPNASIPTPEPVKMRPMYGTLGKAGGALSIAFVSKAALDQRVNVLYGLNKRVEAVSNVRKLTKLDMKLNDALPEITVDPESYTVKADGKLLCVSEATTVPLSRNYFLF
Protocol: Urease inhibitory potential for each synthesisized compound (T1–T20) was evaluated using Jack Bean Urease by Indophenol method (Table 5, Figs. 9, 10, 11). 250 µl of jack bean urease (4U) was mixed with 250 µl of different synthesized test compounds and standard of different concentrations [dissolved in DMSO/H2O mixture (1:1 v/v)]. The mixture was pre-incubated for 1 h at 37 °C in test tubes. 2 ml of 100 mM phosphate buffer (pH 6.8) containing 500 mM urea and 0.002% phenol red as an indicator were added in sample test tubes after pre incubation and again incubated at room temperature. Absorbance of reaction mixture was recorded by ELISA at 570 nm. Ammonium carbonate increased the pH of phosphate buffer from 6.8 to 7.7 which was produced from urea by urease enzyme and the end peak was measured by the colour of phenol red indicator [16].
The percentage inhibition of urease enzyme was calculated by using following formula: I%=Acontrol-Asample/Acontrol×100,
where Acontrol is the absorbance of the control; Asample is the absorbance of the test compound.

[7] = tested on: Aspergillus niger; test: In vitro antifungal screening, tube dilution method; assay type: cell-based; settings: Aspergillus niger, 168 h; A. niger; Sabouraud dextrose broth, 25 ± 1 °C, 7 days; read-out: Minimum inhibitory concentration
Protocol: as §1

[8] = tested on: Candida albicans; test: as above; assay type: cell-based; settings: Candida albicans; C. albican; Sabouraud dextrose broth, 37 ± 1 °C, 48 h; read-out: Minimum inhibitory concentration
Protocol: as §1

[9] = HCT116, 72 h, SRB, mean of at least triplicates
[10] = HCT116, value given in dose-response figure

SMILES: O=C1O[C@H]([C@@H](O)CO)C(O)=C1O [Ascorbic acid, reference compound]
- IC50 [1]: 35.44 µg/mL (≈ 201 µM)
- % inhibition ([1]; 25 µg/ml): 38.67%
- % inhibition ([1]; 50 µg/ml): 63.68%
- % inhibition ([1]; 75 µg/ml): 84.78%
- % inhibition ([1]; 100 µg/ml): 94.45%

SMILES: O=c1[nH]cc(F)c(=O)[nH]1 [Compound 5-FU, Fluorouracil, reference compound]
- IC50 [2, 9]: 25.4 µM
- IC50 [2, 10]: 3.3 µg/mL

SMILES: CCCCCCCCCCCCCCCc1nnc(S)n1N=Cc1ccccc1 [Compound T1]
- IC50 [1]: 46.83 µg/mL (≈ 113 µM)
- % inhibition ([1]; 25 µg/ml): 25.45%
- % inhibition ([1]; 50 µg/ml): 49.65%
- % inhibition ([1]; 75 µg/ml): 69.67%
- % inhibition ([1]; 100 µg/ml): 94.78%
- MIC [3]: 241 µM (≈ 100 µg/mL)
- MIC [4]: 241 µM (≈ 100 µg/mL)
- MIC [5]: 120 µM (≈ 50 µg/mL)
- IC50 [6]: 125 µM
- inhibition at 25 µg/mL [6]: 25.8%
- inhibition at 50 µg/mL [6]: 48%
- inhibition at 75 µg/mL [6]: 72.9%
- inhibition at 100 µg/mL [6]: 92%
- melting point: 184 to 187 °C
- IC50 [2, 9]: > 241 µM
- MIC [7]: 120 µM (≈ 50 µg/mL)
- MIC [8]: 241 µM (≈ 100 µg/mL)

SMILES: CCCCCCCCCCCCCCCc1nnc(S)n1N=Cc1ccc(C=O)cc1 [Compound T2]
- IC50 [1]: 34.83 µg/mL (≈ 78.7 µM)
- % inhibition ([1]; 25 µg/ml): 45.67%
- % inhibition ([1]; 50 µg/ml): 56.98%
- % inhibition ([1]; 75 µg/ml): 70.16%
- % inhibition ([1]; 100 µg/ml): 84.21%
- MIC [3]: 56.4 µM (≈ 25 µg/mL)
- MIC [4]: 113 µM (≈ 50 µg/mL)
- MIC [5]: 56.4 µM (≈ 25 µg/mL)
- IC50 [6]: 120 µM
- inhibition at 25 µg/mL [6]: 40.5%
- inhibition at 50 µg/mL [6]: 49.5%
- inhibition at 75 µg/mL [6]: 55.7%
- inhibition at 100 µg/mL [6]: 67.6%
- melting point: 182 to 185 °C
- IC50 [2, 9]: 3.84 µM
- IC50 [2, 10]: 1.7 µg/mL
- MIC [7]: 226 µM (≈ 100 µg/mL)
- MIC [8]: 226 µM (≈ 100 µg/mL)

SMILES: CCCCCCCCCCCCCCCc1nnc(S)n1N=Cc1ccc(C)cc1 [Compound T3]
- IC50 [1]: 34.38 µg/mL (≈ 80.2 µM)
- % inhibition ([1]; 25 µg/ml): 43.56%
- % inhibition ([1]; 50 µg/ml): 60.12%
- % inhibition ([1]; 75 µg/ml): 75.67%
- % inhibition ([1]; 100 µg/ml): 88.98%
- MIC [3]: 58.3 µM (≈ 25 µg/mL)
- MIC [4]: 117 µM (≈ 50 µg/mL)
- MIC [5]: 58.3 µM (≈ 25 µg/mL)
- IC50 [6]: 126 µM
- inhibition at 25 µg/mL [6]: 28.2%
- inhibition at 50 µg/mL [6]: 50%
- inhibition at 75 µg/mL [6]: 65.9%
- inhibition at 100 µg/mL [6]: 79.1%
- melting point: 190 to 193 °C
- IC50 [2, 9]: 16.6 µM
- MIC [7]: 117 µM (≈ 50 µg/mL)
- MIC [8]: 233 µM (≈ 100 µg/mL)

SMILES: CCCCCCCCCCCCCCCc1nnc(S)n1N=Cc1ccc(OC)c(OC)c1 [Compound T4]
- IC50 [1]: 37.50 µg/mL (≈ 79 µM)
- % inhibition ([1]; 25 µg/ml): 38.45%
- % inhibition ([1]; 50 µg/ml): 58.34%
- % inhibition ([1]; 75 µg/ml): 88.61%
- % inhibition ([1]; 100 µg/ml): 98.89%
- MIC [3]: 52.6 µM (≈ 25 µg/mL)
- MIC [4]: 105 µM (≈ 50 µg/mL)
- MIC [5]: 52.6 µM (≈ 25 µg/mL)
- IC50 [6]: 106 µM
- inhibition at 25 µg/mL [6]: 35.5%
- inhibition at 50 µg/mL [6]: 49.5%
- inhibition at 75 µg/mL [6]: 63.7%
- inhibition at 100 µg/mL [6]: 79.5%
- melting point: 188 to 191 °C
- IC50 [2, 9]: 7.79 µM
- MIC [7]: 105 µM (≈ 50 µg/mL)
- MIC [8]: 52.6 µM (≈ 25 µg/mL)
